# Calls of active or inactive are those of the source. The calls are words filed in the database; no cut-off is given here.
# Tests used:
# [1] = system: Coxsackievirus B4; assay: Minimum inhibitory concentration required to reduce Coxsackie B4 virus induced cytopathogenicity by 50%; type: functional; details: Enterovirus B
# [2] = system: Sindbis virus; assay: Minimum inhibitory concentration required to reduce Sindbis virus induced cytopathogenicity by 50%; type: functional
# [3] = system: Human alphaherpesvirus 2; assay: Minimum inhibitory concentration required to reduce HSV-2 induced cytopathogenicity by 50%; type: functional
# [4] = system: Mammalian orthoreovirus 1; assay: Minimum inhibitory concentration required to reduce Reo virus-1 induced cytopathogenicity by 50%; type: functional, reo virus type 1
# [5] = system: Respiratory syncytial virus; assay: Minimum inhibitory concentration required to reduce Respiratory syncytial virus induced cytopathogenicity by 50%; type: functional; details: human respiratory syncytial virus
# [6] = system: Human respirovirus 3; assay: Minimum inhibitory concentration required to reduce Parainfluenza-3 virus induced cytopathogenicity by 50%; type: functional
# [7] = system: Punta Toro virus; assay: Minimum inhibitory concentration required to reduce Punta Toro virus induced cytopathogenicity by 50%; type: functional
# [8] = system: Human alphaherpesvirus 1; assay: Minimum inhibitory concentration required to reduce HSV-1 induced cytopathogenicity by 50%; type: functional
# [9] = system: Human betaherpesvirus 5; assay: Minimum inhibitory concentration required to reduce HCMV induced cytopathogenicity by 50%; type: functional
# [10] = system: Vesicular stomatitis virus; assay: Minimum inhibitory concentration required to reduce Vesicular stomatitis virus induced cytopathogenicity by 50%; type: functional
# [11] = system: Human alphaherpesvirus 3; assay: Minimum inhibitory concentration required to reduce VZV induced cytopathogenicity by 50%; type: functional
# [12] = system: Human immunodeficiency virus 2; assay: Minimum inhibitory concentration required to reduce HIV-2 induced cytopathogenicity by 50%; type: functional
# [13] = system: Human immunodeficiency virus 1; assay: Minimum inhibitory concentration required to reduce HIV-1 induced cytopathogenicity by 50%; type: functional
# [14] = system: Coxsackievirus B4; assay: Cytotoxicity was evaluated against Coxsackie B4 virus at 200-400 uM; IA=inactive; type: functional, organism-based
# [15] = system: Vesicular stomatitis virus
# [16] = system: Mammalian orthoreovirus 1; assay: Cytotoxicity was evaluated against Reo virus-1 at 200-400 uM; IA=inactive; type: functional, organism-based; details: reo virus type 1
# [17] = system: Sindbis virus; assay: Cytotoxicity was evaluated against Sindbis virus at 200-400 uM; IA=inactive; type: functional, organism-based
# [18] = system: Human respirovirus 3; assay: Cytotoxicity was evaluated against Parainfluenza-3 virus at 200-400 uM; IA=inactive; type: functional, organism-based
# [19] = system: Human alphaherpesvirus 1; assay: Cytotoxicity was evaluated against HSV-1 at 200-400 uM; IA=inactive; type: functional, organism-based
# [20] = system: Human betaherpesvirus 5; assay: Cytotoxicity was evaluated against HCMV at 200-400 uM; IA=inactive; type: functional, organism-based
# [21] = system: Human alphaherpesvirus 3; assay: Cytotoxicity was evaluated against VZV at 200-400 uM; IA=inactive; type: functional, organism-based
# [22] = system: Human immunodeficiency virus 2; assay: Cytotoxicity was evaluated against HIV-2 at 200-400 uM; IA=inactive; type: functional, organism-based
# [23] = system: Punta Toro virus; assay: Cytotoxicity was evaluated against Punta Toro virus at 200-400 uM; IA=inactive; type: functional, organism-based
# [24] = system: Respiratory syncytial virus; assay: Cytotoxicity was evaluated against Respiratory syncytial virus at 200-400 uM; IA=inactive; type: functional, organism-based
# [25] = system: Human alphaherpesvirus 2; assay: Cytotoxicity was evaluated against HSV-2 at 200-400 uM; IA=inactive; type: functional, organism-based
# [26] = system: Human immunodeficiency virus 1; assay: Cytotoxicity was evaluated against HIV-1 at 200-400 uM; IA=inactive; type: functional, organism-based
# [27] = system: Vaccinia virus; details: Orthopoxvirus vaccinia
# [28] = system: Human alphaherpesvirus 1; assay: Minimum inhibitory concentration required to reduce HSV-1(KOS) induced cytopathogenicity by 50%; type: functional
Compound,MIC [1] [µg/mL],MIC [2] [µg/mL],MIC [3] [µg/mL],MIC [4] [µg/mL],MIC [5] [µg/mL],MIC [6] [µg/mL],Cytotoxicity [14],Cytotoxicity [15],Cytotoxicity [16],Cytotoxicity [17],Cytotoxicity [18],Cytotoxicity [19],Cytotoxicity [20],Cytotoxicity [21],Cytotoxicity [22],Cytotoxicity [23],Cytotoxicity [24],Cytotoxicity [25],Cytotoxicity [26],Cytotoxicity [27],further results
Nc1ncnc2c1ncn2[C@H]1S[C@@H](CO)[C@H](O)[C@H]1O,400,400,400,48,400,400,,,,,,,,,,,,,,,MIC [7]: 400 µg/mL; MIC [8]: 400 µg/mL; MIC [9]: 400 µg/mL; MIC [10]: 400 µg/mL; MIC [11]: 400 µg/mL; MIC [12]: 400 µg/mL; MIC [13]: 400 µg/mL
O=c1[nH]c(=O)n(C2S[C@@H](CO)[C@H](O)[C@H]2O)cc1Br (stereo partly drawn),,,,,,,inactive,inactive,inactive,inactive,inactive,inactive,inactive,inactive,inactive,inactive,inactive,inactive,inactive,inactive,
Cc1cn([C@@H]2S[C@@H](CO)[C@H](O)[C@H]2O)c(=O)[nH]c1=O,400,400,400,400,400,400,,,,,,,,,,,,,,,MIC [28]: 48 µg/mL; MIC [7]: 400 µg/mL; MIC [9]: 400 µg/mL; MIC [10]: 400 µg/mL; MIC [11]: 400 µg/mL; MIC [12]: 400 µg/mL; MIC [13]: 400 µg/mL
O=c1[nH]c(=O)n(C2S[C@@H](CO)[C@H](O)[C@H]2O)cc1F (stereo partly drawn),,,,,,,inactive,inactive,inactive,inactive,inactive,inactive,inactive,inactive,inactive,inactive,inactive,inactive,inactive,inactive,
O=c1nc(-n2cncn2)ccn1C1S[C@@H](COCc2ccccc2)[C@H](OCc2ccccc2)[C@H]1OCc1ccccc1 (stereo partly drawn),,,,,,,inactive,inactive,inactive,inactive,inactive,inactive,inactive,inactive,inactive,inactive,inactive,inactive,inactive,inactive,
Nc1ccn(C2S[C@@H](COCc3ccccc3)[C@H](OCc3ccccc3)[C@H]2OCc2ccccc2)c(=O)n1 (stereo partly drawn),,,,,,,inactive,inactive,inactive,inactive,inactive,inactive,inactive,inactive,inactive,inactive,inactive,inactive,inactive,inactive,
O=c1ccn([C@H]2S[C@@H](CO)[C@H](O)[C@H]2O)c(=O)[nH]1,400,400,400,400,400,400,,,,,,,,,,,,,,,MIC [28]: 48 µg/mL; MIC [7]: 400 µg/mL; MIC [9]: 400 µg/mL; MIC [10]: 400 µg/mL; MIC [11]: 400 µg/mL; MIC [12]: 400 µg/mL; MIC [13]: 400 µg/mL
Cc1cn([C@H]2S[C@@H](CO)[C@H](O)[C@H]2O)c(=O)[nH]c1=O,400,400,400,400,400,400,,,,,,,,,,,,,,,MIC [7]: 400 µg/mL; MIC [8]: 400 µg/mL; MIC [9]: 400 µg/mL; MIC [10]: 400 µg/mL; MIC [11]: 400 µg/mL; MIC [12]: 400 µg/mL; MIC [13]: 400 µg/mL
C[C@@]1(n2ccc(N)nc2=O)CS[C@H](CO)O1,,,,,,,inactive,inactive,inactive,inactive,inactive,inactive,inactive,inactive,inactive,inactive,inactive,inactive,inactive,inactive,
Nc1ncnc2c1ncn2C1S[C@@H](COCc2ccccc2)[C@H](OCc2ccccc2)[C@H]1OCc1ccccc1 (stereo partly drawn),,,,,,,inactive,inactive,inactive,inactive,inactive,inactive,inactive,inactive,inactive,inactive,inactive,inactive,inactive,inactive,
Nc1ccn(C2S[C@@H](CO)[C@H](O)[C@H]2O)c(=O)n1 (stereo partly drawn),400,400,400,400,400,400,,,,,,,,,,,,,,,MIC [7]: 400 µg/mL; MIC [8]: 400 µg/mL; MIC [9]: 400 µg/mL; MIC [10]: 400 µg/mL; MIC [11]: 400 µg/mL; MIC [12]: 400 µg/mL; MIC [13]: 400 µg/mL
CC(=O)OC1S[C@@H](COCc2ccccc2)[C@H](OCc2ccccc2)[C@H]1OCc1ccccc1 (stereo partly drawn),,,,,,,inactive,inactive,inactive,inactive,inactive,inactive,inactive,inactive,inactive,inactive,inactive,inactive,inactive,inactive,
O=c1[nH]c(=O)n(C2S[C@@H](CO)[C@H](O)[C@H]2O)cc1Cl (stereo partly drawn),,,,,,,inactive,inactive,inactive,inactive,inactive,inactive,inactive,inactive,inactive,inactive,inactive,inactive,inactive,inactive,
O=c1ccn([C@@H]2S[C@@H](CO)[C@H](O)[C@H]2O)c(=O)[nH]1,400,400,400,400,400,400,,,,,,,,,,,,,,,MIC [7]: 400 µg/mL; MIC [8]: 400 µg/mL; MIC [9]: 400 µg/mL; MIC [10]: 400 µg/mL; MIC [11]: 400 µg/mL; MIC [12]: 400 µg/mL; MIC [13]: 400 µg/mL
Nc1ncnc2c1ncn2[C@@H]1S[C@@H](CO)[C@H](O)[C@H]1O,400,400,400,400,400,400,,,,,,,,,,,,,,,MIC [7]: 400 µg/mL; MIC [8]: 400 µg/mL; MIC [9]: 400 µg/mL; MIC [10]: 400 µg/mL; MIC [11]: 400 µg/mL; MIC [12]: 400 µg/mL; MIC [13]: 400 µg/mL
